SMILES strings stand for the structures.

What is called IC50 is the concentration that inhibits the measured activity by half.

The target of the assay is T1, human ERK-2 (Mitogen Activated Kinase 1) (Homo sapiens, UniProt P28482).
T1 construct: n-terminal 6-His fusion protein in E. coli and corresponding to aa 8-360; 6-His (N); made in house; host or cells: E. coli
Kind of assay: ERK-2 Enzymatic Assay. The class given is biochemical. To be noted: ERK-2 enzymatic assay; read-out: IC50. From the text: Table 1 contains representative data for Examples disclosed herein.

T1 sequence (P28482 8-360): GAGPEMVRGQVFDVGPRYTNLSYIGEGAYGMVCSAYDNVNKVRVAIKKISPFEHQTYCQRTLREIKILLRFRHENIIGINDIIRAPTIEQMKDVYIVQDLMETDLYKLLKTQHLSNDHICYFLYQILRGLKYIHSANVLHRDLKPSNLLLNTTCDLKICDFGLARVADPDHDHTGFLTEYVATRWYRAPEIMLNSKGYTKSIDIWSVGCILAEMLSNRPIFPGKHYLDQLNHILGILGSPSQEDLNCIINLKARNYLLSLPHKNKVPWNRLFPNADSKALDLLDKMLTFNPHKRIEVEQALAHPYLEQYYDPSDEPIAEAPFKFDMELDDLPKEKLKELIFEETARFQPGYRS

In the case of `COc1ccc(Cn2nnc3cc(-c4ccnc(Nc5nnnn5C)n4)ccc32)cc1F` [Example 24, 4-(1-(3-fluoro-4-methoxybenzyl)-1H-benzo[d][1,2,3]triazol-5-yl)-N-(1-methyl-1H-tetrazol-5-yl)pyrimidin-2-amine], the IC50 was below 100 nM.

Turning to `Cn1nccc1Nc1nccc(-c2cnc3c(c2)nnn3CCc2cccc(Cl)c2)n1` [Example 118, 4-(3-(3-chlorophenethyl)-3H-[1,2,3]triazolo[4,5-b]pyridin-6-yl)-N-(1-methyl-1H-pyrazol-5-yl)pyrimidin-2-amine], the IC50 was below 100 nM.

For the molecule `Cc1ccc(Cn2nnc3cc(-c4ccnc(Nc5ccnn5C)n4)ccc32)cn1` [Example 57, N-(1-methyl-1H-pyrazol-5-yl)-4-(1-((6-methylpyridin-3-yl)methyl)-1H-benzo[d][1,2,3]triazol-5-yl)pyrimidin-2-amine], the IC50 is below 100 nM.

Turning to `COc1ccc(Cn2nnc3cc(-c4ccnc(Nc5ccnn5C)n4)ccc32)cc1` [Example 65, 4-(1-(4-methoxybenzyl)-1H-benzo[d][1,2,3]triazol-5-yl)-N-(1-methyl-1H-pyrazol-5-yl)pyrimidin-2-amine], the IC50 was below 100 nM.

Consider `COc1ccc(Cn2nnc3cc(-c4ccnc(NC(C)C)n4)ccc32)cc1F` [Example 13, 4-(1-(3-fIuoro-4-methoxybenzyl)-1H-benzo[d][1,2,3]triazol-5-yl)-N-isopropylpyrimidin-2-amine], for which the IC50 was below 100 nM.

Turning to `CN1CC(n2nnc3cc(-c4ccnc(Nc5cnn(C)c5)n4)ccc32)[C@H](c2ccc(F)cc2F)C1` (stereo partly drawn) [Example 73, 4-(1-((3S,4R)-4-(2,4-difluorophenyl)-1-methylpyrrolidin-3-yl)-1H-benzo[d][1,2,3]triazol-5-yl)-N(1-methyl-1H-pyrazol-4-yl)pyrimidin-2-amine], the IC50 is below 100 nM.

Take `Cn1nccc1Cn1nnc2cc(-c3ccnc(Nc4ccnn4C)n3)ccc21` [Example 39, N-(1-methyl-1H-pyrazol-5-yl)-4-(1-((1-methyl-1H-pyrazol-5-yl)methyl)-1H-benzo[d][1,2,3]triazol-5-yl)pyrimidin-2-amine]: the IC50 was below 100 nM.

Regarding `CC(C)Cn1nnc2cc(-c3ccnc(Nc4ccnn4C)n3)cnc21` [Example 114, 4-(3-isobutyl-3H-[1,2,3]triazolo[4,5-b]pyridin-6-yl)-N-(1-methyl-1H-pyrazol-5-yl)pyrimidin-2-amine], the half-inhibitory concentration (IC50) is below 100 nM.

In the case of `COc1ncccc1Cn1nnc2cc(-c3ccnc(Nc4ccnn4C)n3)ccc21` [Example 67, 4-(1-((2-methoxypyridin-3-yl)methyl)-1H-benzo[d][1,2,3]triazol-5-yl)-N-(1-methyl-1H-pyrazol-5-yl)pyrimidin-2-amine], the IC50 was below 100 nM.

Consider `CCN1C[C@@H](n2nnc3cc(-c4ccnc(Nc5ccnn5C)n4)ccc32)[C@H](c2ccc(F)c(F)c2)C1` [Example 77, 4-(1-((3S,4R)-4-(3,4-difluorophenyl)-1-ethylpyrrolidin-3-yl)-1H-benzo[d][1,2,3]triazol-5-yl)-N-(1-methyl-1H-pyrazol-5-yl)pyrimidin-2-amine], for which the IC50 is below 100 nM.

Regarding `COc1ccc(Cn2nnc3cc(-c4ccnc(NC5COC5)n4)ccc32)cc1F` [Example 10, 4-(1-(3-fluoro-4-methoxybenzyl)-1H-benzo[d][1,2,3]triazol-5-yl)-N-(oxetan-3-yl)pyrimidin-2-amine], the half-maximal inhibitory concentration (IC50) is below 100 nM.

Consider `COCC(C)(C)Cn1nnc2cc(-c3ccnc(Nc4ccnn4C)n3)ccc21` [Example 46, 4-(1-(3-methoxy-2,2-dimethylpropyl)-1H-benzo[d][1,2,3]triazol-5-yl)-N-(1-methyl-1H-pyrazol-5-yl)pyrimidin-2-amine], for which the IC50 was below 100 nM.

`Cn1nccc1Nc1nccc(-c2ccc3c(c2)nnn3CCc2ccc(Cl)cc2)n1` [Example 3, 4-(1-(4-chlorophenethyl)-1H-benzo[d][1,2,3]triazol-5-yl)-N-(1-methyl-1H-pyrazol-5-yl)pyrimidin-2-amine]: the IC50 is below 100 nM.

With `CCC(C)Cn1nnc2cc(-c3ccnc(Nc4cnn(C)c4)n3)ccc21` (stereo not drawn) [Example 96, N-(1-methyl-1H-pyrazol-4-yl)-4-(1-(2-methylbutyl)-1H-benzo[d][1,2,3]triazol-5-yl)pyrimidin-2-amine], the IC50 is below 100 nM.

On to `Cn1nccc1Nc1nccc(-c2ccc3c(c2)nnn3C(CN2CCCC2)c2ccc(Cl)c(F)c2)n1` (stereo not drawn) [Example 92, 4-(1-(1-(4-chloro-3-fluorophenyl)-2-(pyrrolidin-1-yl)ethyl)-1H-benzo[d][1,2,3]triazol-5-yl)-N-(1-methyl-1H-pyrazol-5-yl)pyrimidin-2-amine], for which the 50% inhibitory concentration (IC50) is below 100 nM.

As for `Cn1nccc1Nc1nccc(-c2ccc3c(c2)nnn3Cc2ncc(F)cc2F)n1` [Example 69, 4-(1-((3,5-difluoropyridin-2-yl)methyl)-1H-benzo[d][1,2,3]triazol-5-yl)-N-(1-methyl-1H-pyrazol-5-yl)pyrimidin-2-amine], the IC50 is below 100 nM.

Consider `Cn1nccc1Nc1nccc(-c2ccc3c(c2)nnn3Cc2ccc(OC(F)F)cc2)n1` [Example 51, 4-(1-(4-(difluoromethoxy)benzyl)-1H-benzo[d][1,2,3]triazol-5-yl)-N-(1-methyl-1H-pyrazol-5-yl)pyrimidin-2-amine], for which the 50% inhibitory concentration (IC50) is below 100 nM.

On to `CN1C[C@@H](n2nnc3cc(-c4ccnc(Nc5ccnn5C)n4)ccc32)[C@H](c2ccc(F)c(F)c2)C1` [Example 75, 4-(1-((3S,4R)-4-(3,4-difluorophenyl)-1-methylpyrrolidin-3-yl)-1H-benzo[d][1,2,3]triazol-5-yl)-N-(1-methyl-1H-pyrazol-5-yl)pyrimidin-2-amine], for which the IC50 is below 100 nM.

Regarding `COC(C)Cn1nnc2cc(-c3ccnc(Nc4ccnn4C)n3)ccc21` (stereo not drawn) [Example 30, 4-(1-(2-methoxypropyl)-1H-benzo[d][1,2,3]triazol-5-yl)-N-(1-methyl-1H-pyrazol-5-yl)pyrimidin-2-amine], the half-inhibitory concentration (IC50) is below 100 nM.

Turning to `Cn1nccc1Nc1nccc(-c2ccc3c(c2)nnn3C2CNCCC2c2cccc(F)c2)n1` (stereo not drawn) [Example 89, 4-(1-(4-(3-fluorophenyl)piperidin-3-yl)-1H-benzoyl[d][1,2,3]triazol-5-yl)-N-(1-methyl-1H-pyrazol-5-yl)pyrimidin-2-amine], the IC50 is below 100 nM.

As for `COc1ccc(Cn2nnc3cc(-c4ccnc(Nc5cnn(C)n5)n4)ccc32)cc1F` [Example 9, 4-(1-(3-fluoro-4-methoxybenzyl)-1H-benzo[d][1,2,3]triazol-5-yl)-N-(2-methyl-2H-1,2,3-triazol-4-yl)pyrimidin-2-amine], the IC50 is below 100 nM.

Take `COc1ccc(Cn2nnc3cc(-c4ccnc(NC(C)(C)CN5CCOCC5)n4)ccc32)cc1F` [Example 23, 4-(1-(3-fluoro-4-methoxybenzyl)-1H-benzo[d][1,2,3]triazol-5-yl)-N-(2-methyl-1-morpholinopropan-2-yl)pyrimidin-2-amine]: the concentration for half-maximal inhibition (IC50) was below 100 nM.

Regarding `CC(C)Cn1nnc2cc(-c3ccnc(Nc4cnn(C)c4)n3)ccc21` [Example 97, 4-(1-isobutyl-1H-benzo[d][1,2,3]triazol-5-yl)-N-(1-methyl-1H-pyrazol-4-yl)pyrimidin-2-amine], the IC50 was below 100 nM.

As for `COc1cccc(F)c1CN1CC(n2nnc3cc(-c4ccnc(Nc5ccnn5C)n4)ccc32)C1` [Example 88, 4-(1-(1-(2-fluoro-6-methoxybenzyl)azetidin-3-yl)-1H-benzo[d][1,2,3]triazol-5-yl)-N-(1-methyl-1H-pyrazol-5-yl)pyrimidin-2-amine], the IC50 is below 100 nM.

In the case of `Cn1nccc1Nc1nccc(-c2ccc3c(c2)nnn3CC2CCCCO2)n1` (stereo not drawn) [Example 101, N-(1-methyl-1H-pyrazol-5-yl)-4-(1-((tetrahydro-2H-pyran-2-yl)methyl)-1H-benzoyl[d][1,2,3]triazol-5-yl)pyrimidin-2-amine], the IC50 was below 100 nM.

As for `COc1ccc(Cn2nnc3cc(-c4ccnc(NC5CCOCC5)n4)ccc32)cc1F` [Example 110, 4-(1-(3-fluoro-4-methoxybenzyl)-1H-benzo[d][1,2,3]triazol-5-yl)-N-(tetrahydro-2H-pyran-4-yl)pyrimidin-2-amine], the IC50 is below 100 nM.

As for `CC(C)OCCCn1nnc2cc(-c3ccnc(Nc4ccnn4C)n3)ccc21` [Example 102, 4-(1-(3-isopropoxypropyl)-1H-benzo[d][1,2,3]triazol-5-yl)-N-(1-methyl-1H-pyrazol-5-yl)pyrimidin-2-amine], the half-maximal inhibitory concentration (IC50) was below 100 nM.

For `Cn1nccc1Nc1nccc(-c2ccc3c(c2)nnn3C2CCc3cc(Cl)ccc32)n1` (stereo not drawn) [Example 59, 4-(1-(5-chloro-2,3-dihydro-1H-inden-1-yl)-1H-benzo[d][1,2,3]triazol-5-yl)-N-(1-methyl-1H-pyrazol-5-yl)pyrimidin-2-amine], the IC50 was below 100 nM.

`Cn1nccc1Nc1nccc(-c2ccc3c(c2)nnn3CC2CCCC2)n1` [Example 29, 4-(1-(cyclopentylmethyl)-1H-benzo[d][1,2,3]triazol-5-yl)-N-(1-methyl-1H-pyrazol-5-yl)pyrimidin-2-amine]: the IC50 was below 100 nM.

In the case of `Cn1nccc1Nc1nccc(-c2ccc3c(c2)nnn3CC(C)(F)F)n1` [Example 31, 4-(1-(2,2-difluoropropyl)-1H-benzo[d][1,2,3]triazol-5-yl)-N-(1-methyl-1H-pyrazol-5-yl)pyrimidin-2-amine], the half-maximal inhibitory concentration (IC50) was below 100 nM.

Consider `COc1ccc(Cn2nnc3cc(-c4ccnc(N[C@@H](C)CO)n4)ccc32)cc1F` [Example 19, (S)-2-((4-(1-(3-fluoro-4-methoxybenzyl)-1H-benzo[d][1,2,3]triazol-5-yl)pyrimidin-2-yl)amino)propan-1-ol], for which the IC50 is below 100 nM.

Regarding `Cn1nccc1Nc1nccc(-c2cnc3c(c2)nnn3Cc2ccc(Cl)cc2)n1` [Example 116, 4-(3-(4-chlorobenzyl)-3H-[1,2,3]triazolo[4,5-b]pyridin-6-yl)-N-(1-methyl-1H-pyrazol-5-yl)pyrimidin-2-amine], the IC50 was below 100 nM.

Regarding `CN1C[C@@H](n2nnc3cc(-c4ccnc(Nc5ccnn5C)n4)ccc32)[C@H](c2ccc(F)cc2F)C1` [Example 74, 4-(1-((3S,4R)-4-(2,4-difluorophenyl)-1-methylpyrrolidin-3-yl)-1H-benzo[d][1,2,3]triazol-5-yl)-N-(1-methyl-1H-pyrazol-5-yl)pyrimidin-2-amine], the IC50 was below 100 nM.

(Values after patent US9763942B2, “Serine/threonine kinase inhibitors” (Array BioPharma Inc., priority 2013, dated 2017).)
